Results: US8865704B2, “Wnt pathway antagonists” (Siena Biotech S.p.A., priority 2009, dated 2014)

Tested on: Wnt/β-catenin pathway
Assay: Wnt reporter assay (TCF-Luciferase, Firefly) in DBTRG-05MG cells
Type: cell-based
Settings: Homo sapiens, 24 hours after compound addition
Protocol: TCF-Luciferase: Three copies of a 4×TCF responsive elements were cloned into the pcDNA3.1/Zeo(+) vector (Invitrogen) after deletion of the constitutive CMV promoter and the insertion of the Firefly Luciferase from Promega (phFL-TK) to measure the activity of the Wnt/β-catenin pathway. The resulting plasmid was sequenced for quality control.
Cells were grown in 20 μg/ml Zeocin and 20 μg/ml Zeocin plus 30 μg/ml Hygromicin respectively. The cells were plated at a density of 6500 cells/well in poly-D-lysine pre-treated 96 well-plates.
IC50 determination: 36 hours after plating cells were incubated with 8-points (60 μM-40 μM-20 μM-10 μM-5 μM-1.66 μM-0.55 μM-0.185 μM) dilutions compound (0.6% DMSO (v/v)). Each compound was tested in triplicate in single plate. Luciferase detection was done with Dual-Luciferase Reporter Assay System (Promega). 24 hours after compound addition, media was removed and 30 μl of 1× lysis buffer was added to each well for 30 minutes. To each well 45 μl of Dual-Glo Luciferase reagent (Promega) were added and after 1 second delay Luciferase was detected for 1 second using Mithras LB940 instrument. After Firefly luciferase quantification 45 μl of Dual Stop & Glo reagent (Promega) were added to each well and Firefly Renilla was detected using the same parameters described before.
Data were expressed as % of control for Firefly and Renilla luciferase independently; values were calculated using XLFit version 4.2, with a four parameters sigmoid function (XLFit model 205).

IC50 | Structure (SMILES)
0.3 to 30 µM | COc1ccc2[nH]c(=O)n(C[C@H]3CC[C@H](C(=O)N4CCOCC4)CC3)c2c1 [Example 8, 6-Methoxy-1-[trans-4-(morpholine-4-carbonyl)-cyclohexylmethyl]-1,3-dihydro-benzoimidazol-2-one]
0.3 to 30 µM | CC(C)C(=O)N1CCN(C(=O)[C@H]2CC[C@H](Cn3c(=O)[nH]c4cccc(Cl)c4c3=O)CC2)CC1 [Example 51]
0.3 to 30 µM | O=C(C1CC1)N1CCN(C(=O)[C@H]2CC[C@H](Cn3c(=O)[nH]c4ccc(F)cc4c3=O)CC2)CC1 [Example 82]
0.3 to 30 µM | CC(C)C(=O)N1CCN(C(=O)[C@H]2CC[C@H](Cn3c(=O)n(C)c4ccccc43)CC2)CC1 [Example 61]
0.3 to 30 µM | COc1cccc2c1CN(C[C@H]1CC[C@H](C(=O)N3CCN(c4nccs4)CC3)CC1)C(=O)N2 [Example 178]
0.3 to 30 µM | CC(C)C(=O)N1CCN(C(=O)[C@H]2CC[C@H](CN3C(=O)CC(c4ccccc4)NC3=O)CC2)CC1 (stereo partly drawn) [Example 6, 3-[trans-4-(4-Isobutyryl-piperazine-1-carbonyl)-cyclohexylmethyl]-6-phenyl-dihydro-pyrimidine-2,4-dione]
0.3 to 30 µM | COc1ccc2[nH]c(=O)n(C[C@H]3CC[C@H](C(=O)N4CCN(c5ccncc5)CC4)CC3)c(=O)c2c1 [Example 139]
0.3 to 30 µM | COc1ccc2[nH]c(=O)n(C[C@H]3CC[C@H](C(=O)N4CCN(C(=O)C5CCCC5)CC4)CC3)c(=O)c2c1 [Example 65]
0.3 to 30 µM | CCCC(C)C(=O)N1CCN(C(=O)[C@H]2CC[C@H](Cn3c(=O)[nH]c4ccc(OC)cc4c3=O)CC2)CC1 (stereo partly shown) [Example 100]
0.3 to 30 µM | COc1ccc2[nH]c(=O)n(C[C@H]3CC[C@H](C(=O)N4CCN(C(=O)C(C)(C)F)CC4)CC3)c(=O)c2c1 [Example 96]
0.3 to 30 µM | COc1ccc2c(c1)n(C[C@H]1CC[C@H](C(=O)N3CCN(C(=O)C(C)C)CC3)CC1)c(=O)n2C [Example 184]
0.3 to 30 µM | COc1ccc2c(c1)c(=O)n(C[C@H]1CC[C@H](C(=O)Nc3ccc(C)nc3)CC1)c(=O)n2C [Example 148]
0.3 to 30 µM | COc1ccc2[nH]c(=O)n(C[C@H]3CC[C@H](C(=O)N4CCN(C(=O)C5CC5)CC4)CC3)c2n1 [Example 158]
0.3 to 30 µM | COc1ccc2c(c1)c(=O)n(C[C@H]1CC[C@H](C(=O)N3CCN(C(=O)OC(C)C)CC3)CC1)c(=O)n2C [Example 130]
0.3 to 30 µM | COc1ccc2c(c1)c(=O)n(C[C@H]1CC[C@H](C(=O)Nc3cccc4ncccc34)CC1)c(=O)n2C [Example 188]
0.3 to 30 µM | COCC(=O)N1CCN(C(=O)[C@H]2CC[C@H](Cn3c(=O)[nH]c4ccc(OC)cc4c3=O)CC2)[C@H](C)C1 [Example 127]
0.3 to 30 µM | COc1ccc2c(c1)c(=O)n(C[C@H]1CC[C@H](C(=O)N3CCN(C(=O)[C@H]4CCCO4)CC3)CC1)c(=O)n2C [Example 131]
0.3 to 30 µM | CCC(C)C(=O)N1CCN(C(=O)[C@H]2CC[C@H](Cn3c(=O)c4cc(OC)ccc4n(C)c3=O)CC2)CC1 (stereo partly shown) [Example 123]
0.3 to 30 µM | O=C(Nc1cccnc1)C1CCC(Cn2c(=O)[nH]c3ccccc3c2=O)CC1 (stereo not shown) [Example 23]
0.3 to 30 µM | COc1ccc2c(c1)c(=O)n(C[C@H]1CC[C@H](C(=O)N3CCN(C(=O)C4CC4)CC3)CC1)c(=O)n2CC1CC1 [Example 84]
0.3 to 30 µM | O=C(C1CC1(F)F)N1CCN(C(=O)[C@H]2CC[C@H](Cn3c(=O)[nH]c4ccccc4c3=O)CC2)CC1 (stereo partly shown) [Example 108]
0.3 to 30 µM | COc1ccc(CN2CCN(C(=O)[C@H]3CC[C@H](Cn4c(=O)[nH]c5ccccc5c4=O)CC3)CC2)cc1 [Example 38]
0.3 to 30 µM | COc1ccc2c(c1)c(=O)n(C[C@H]1CC[C@H](C(=O)N3CCN(C(=O)n4ccnc4)CC3)CC1)c(=O)n2C [Example 171]
0.3 to 30 µM | CCOc1ccc2[nH]c(=O)n(C[C@H]3CC[C@H](C(=O)N4CCN(C(=O)C5CC5)CC4)CC3)c(=O)c2c1 [Example 161]
0.3 to 30 µM | Cc1ccc(CN2CCN(C(=O)[C@H]3CC[C@H](Cn4c(=O)[nH]c5ccccc5c4=O)CC3)CC2)o1 [Example 40]
0.3 to 30 µM | COCC(=O)N1CCN(C(=O)[C@H]2CC[C@H](Cn3c(=O)n(C)c4ccc(OC)nc43)CC2)CC1 [Example 208]
0.3 to 30 µM | COCC(=O)N1CCN(C(=O)[C@H]2CC[C@H](Cn3c(=O)n(C)c4ccc(OC)cc43)CC2)CC1 [Example 183]

IC50 | Structure (SMILES)
0.3 to 30 µM | COc1ccc2[nH]c(=O)n(C[C@H]3CC[C@H](C(=O)N4CCCOCC4)CC3)c(=O)c2c1 [Example 90]
0.3 to 30 µM | COc1ccc2c(c1)c(=O)n(C[C@H]1CC[C@H](C(=O)N3CCN(CC4CC4)C(=O)C3)CC1)c(=O)n2C [Example 132]
0.3 to 30 µM | CC(C)Cn1c(=O)n(C[C@H]2CC[C@H](C(=O)N3CCN(C(=O)C4CC4)CC3)CC2)c(=O)c2ccccc21 [Example 64]
0.3 to 30 µM | O=c1[nH]c2ccccc2c(=O)n1C[C@H]1CC[C@H](C(=O)N2CCN(c3ncccn3)CC2)CC1 [Example 1, trans-3-[4-(4-Pyrimidin-2-yl-piperazine-1-carbonyl)-cyclohexylmethyl]-1H-quinazoline-2,4-dione]
0.3 to 30 µM | COc1ccc2c(c1)c(=O)n(C[C@H]1CC[C@H](C(=O)Nc3cccc4cccnc34)CC1)c(=O)n2C [Example 201]
0.3 to 30 µM | COc1ccc2[nH]c(=O)n(C[C@H]3CC[C@H](C(=O)N4CCN(c5cccc(OC)n5)CC4)CC3)c(=O)c2c1 [Example 140]
0.3 to 30 µM | COc1ccc2[nH]c(=O)n(C[C@H]3CC[C@H](C(=O)N4CCN(C(=O)[C@@H]5CCCO5)CC4)CC3)c(=O)c2c1 [Example 110]
0.3 to 30 µM | COc1ccc2c(c1)c(=O)n(C[C@H]1CC[C@H](C(=O)N3CCN(c4ccncc4)CC3)CC1)c(=O)n2C [Example 195]
0.3 to 30 µM | Cc1ccc2[nH]c(=O)n(C[C@H]3CC[C@H](C(=O)N4CCN(C(=O)C(C)C)CC4)CC3)c(=O)c2c1 [Example 143]
0.3 to 30 µM | COc1ccc2[nH]c(=O)n(C[C@H]3CC[C@H](C(=O)N4CCN(c5cnccn5)CC4)CC3)c(=O)c2c1 [Example 91]
0.3 to 30 µM | COc1ccc2c(c1)c(=O)n(C[C@H]1CC[C@H](C(=O)Nc3cnc4ccccn34)CC1)c(=O)n2C [Example 190]
0.3 to 30 µM | COc1ccc2c(c1)c(=O)n(C[C@H]1CC[C@H](C(=O)Nc3ccon3)CC1)c(=O)n2C [Example 193]
0.3 to 30 µM | COc1ccc2c(c1)c(=O)n(C[C@H]1CC[C@H](C(=O)N3CCN(C(=O)c4ccncn4)CC3)CC1)c(=O)n2C [Example 147]
0.3 to 30 µM | COc1ccc(N2CCN(C(=O)C3CCC(Cn4c(=O)[nH]c5ccccc5c4=O)CC3)CC2)cc1 (stereo not shown) [Example 28]
0.3 to 30 µM | COCC(=O)N1CCN(C(=O)[C@H]2CC[C@H](Cn3c(=O)c4cc(OC)ccc4n(C)c3=O)CC2)[C@@H](C)C1 [Example 145]
0.3 to 30 µM | CCOc1ccc2c(c1)c(=O)n(C[C@H]1CC[C@H](C(=O)N3CCN(C(=O)C4CCCC4)CC3)CC1)c(=O)n2C [Example 199]
0.3 to 30 µM | CN1C(=O)N(C[C@H]2CC[C@H](C(=O)N3CCN(c4ccccn4)CC3)CC2)C(=O)Cc2ccccc21 [Example 15, 1-Methyl-3-[trans-4-(4-pyridin-2-yl-piperazine-1-carbonyl)-cyclohexylmethyl]-1,5-dihydro-benzo[d][1,3]diazepine-2,4-dione]
0.3 to 30 µM | COc1ccc2[nH]c(=O)n(C[C@H]3CC[C@H](C(=O)N4CCN(C(=O)C5CC5)C[C@H]4C)CC3)c(=O)c2c1 [Example 126]
0.3 to 30 µM | CN1C(=O)N(C[C@H]2CC[C@H](C(=O)N3CCN(C(=O)C4CC4)CC3)CC2)Cc2ccccc21 [Example 67]
0.3 to 30 µM | COc1ccc2c(c1)c(=O)n(C[C@H]1CC[C@H](C(=O)N3CCN(C(=O)[C@@H]4CCCO4)CC3)CC1)c(=O)n2C [Example 128]
0.3 to 30 µM | COc1ccc2c(c1)c(=O)n(C[C@H]1CC[C@H](C(=O)N3CCN(C(=O)C4CCC4)CC3)CC1)c(=O)n2C [Example 129]
0.3 to 30 µM | COc1ccc2[nH]c(=O)n(C[C@H]3CC[C@H](C(=O)N4CCN(c5ncccn5)CC4)CC3)c(=O)c2c1 [Example 98]
0.3 to 30 µM | COc1ccc2c(c1)c(=O)n(C[C@H]1CC[C@H](C(=O)Nc3cncc(F)c3)CC1)c(=O)n2C [Example 174]
0.3 to 30 µM | CC(=O)N1CCN(C(=O)[C@H]2CC[C@H](Cn3c(=O)c4ccccc4n(C)c3=O)CC2)CC1 [Example 52]
0.3 to 30 µM | COCC(=O)N1CCN(C(=O)[C@H]2CC[C@H](Cn3c(=O)c4cc(OC)ccc4n(C)c3=O)CC2)[C@H](C)C1 [Example 144]
0.3 to 30 µM | CCC(C)C(=O)N1CCN(C(=O)[C@H]2CC[C@H](Cn3c(=O)[nH]c4ccc(OC)cc4c3=O)CC2)CC1 (stereo partly shown) [Example 101]

Structure (SMILES) | IC50
COc1ccc2c(c1)n(C[C@H]1CC[C@H](C(=O)N3CCN(C(C)=O)CC3)CC1)c(=O)n2C [Example 17, 3-[trans-4-(4-Acetyl-piperazine-1-carbonyl)-cyclohexylmethyl]-5-methoxy-1-methyl-1,3-dihydro-benzoimidazol-2-one] | 0.3 to 30 µM
CN1C(=O)CN(C[C@H]2CC[C@H](C(=O)N3CCN(c4ccccn4)CC3)CC2)C(=O)c2ccccc21 [Example 14, 1-Methyl-4-[trans-4-(4-pyridin-2-yl-piperazine-1-carbonyl)-cyclohexylmethyl]-3,4-dihydro-1H-benzo[e][1,4]diazepine-2,5-dione] | 0.3 to 30 µM
